The record followed here is patent US20060263368A1, “Targeted chimeric molecules for cancer therapy” (Research Development Foundation, priority 2005, published 2006).

A value given as a limit tells only on which side of the number the result lay.

Series [1] deals with gp240 antigen (high-molecular-weight glycoprotein gp240 on human melanoma cells) (human) (UniProt Q6UVK1). The experiment in a line: flow cytometry on A375-M cells stained with ZME-018 IgG2a and APC goat anti-mouse, against an isotype control. For orientation: A flow cytometer gives signals particle by particle.
The target is the same in series [2]. Description: flow cytometry on TXM-18L cells stained with ZME-018 IgG2a and APC goat anti-mouse, against an isotype control.
For series [3] the target is unchanged. The experiment in a line: flow cytometry on TXM-1 cells (very low gp240) stained with ZME-018 IgG2a and APC goat anti-mouse, against an isotype control.
Series [4] has the same target. Description: flow cytometry on MEL-526 cells stained with ZME-018 IgG2a and APC goat anti-mouse, against an isotype control.
A further series has as its system A375-M Cells. The experiment in a line: Combination studies of GrB/scFvMEL with chemotherapeutic agents. Particulars: for antitumor activity on co-administration with GrB/scFvMEL: 72 hours.
Series [5] has as its system A375 doxorubicin-resistant (A375DR). The experiment in a line: Cytotoxicity on parental and doxorubicin-resistant cells. It is filed as cell-based. Particulars: Homo sapiens, A-375; 72 hours. The procedure:
(§1) To examine the cytotoxicity of GrB/scFvMEL or MEL/sFv/rGel, melanoma cells were plated on 96-well plates at a density of 4×10^3 cells per well and allowed to adhere for 24 hr at 37° C. in 5% CO2. After 24 hr, the medium was replaced with medium that contained various concentrations of fusion proteins. […] The percent of control refers to the percentage of cells in the drug-treated wells compared to that of control (untreated) wells.
(§2) Expression of the gp240 antigen was assessed by ELISA using ZME-018 antibody specifically recognizing gp240 antigen.

The subject of another series is parental A375 cells. Described as above. Particulars: Homo sapiens, A-375; 72 hours. Format: cell-based. The procedure:
as §1, §2

A further series relates to Capan-1. Description: In vitro cytotoxicity and combination study, crystal violet. As to conditions: 72 hr of exposure. Format: cell-based, human. The source says: (§3) If CI near to 1 indicates additive effect (ADD), CI>1 indicates antagonism (ANT), CI<1 indicates synergism (SYN).
In a further series the test system is Capan-2. The series is described as above. Format: cell-based, human. Particulars: 72 hr of exposure.
Excerpt: as §3

Another series concerns L3.6pl. The description is as above. It is filed as cell-based, human. As to conditions: 72 hr of exposure.
Excerpt: as §3

The subject of another series is AsPc-1. The description is as above. It is filed as cell-based, human. Particulars: 72 hr of exposure.
Excerpt: as §3

Series [6] has as its system AsPc-1, Capan-1, Capan-2, and L3.6pl. The experiment in a line: cells. Particulars: Homo sapiens, Pancreatic cancer cell.
Description: (§4) To examine the potential mediation of the synergistic effect of combination treatments by activation of caspase-3 cells were pretreated with or without 100 μM caspase-3 inhibitor (Ac-DEVD-CHO) for 3 hr and then treated with their individual IC25 concentrations. After incubation for an additional 72 hr, remaining adherent cells were stained by adding 50 μl of crystal violet solution (0.5% w/v in 20% MeOH/H2O). Dye-stained cells were solubilized by addition of 100 μl of Sorenson's buffer [100 mM sodium citrate (pH 4.2) in 50% ethanol], and absorbance was measured at 630 nm using an ELISA plate reader (Bio-Tek Instruments, Inc., Winooski, Vt.).
For series [7] the test system is unchanged. As to conditions: pancreatic cancer cell lines.
Description: as §4
The target in series [8] is gp240 antigen (high-molecular-weight glycoprotein gp240 on human melanoma cells) (human) (UniProt Q6UVK1). The experiment in a line: cell-based or functional assay.
A further series concerns L3.6pl cells. Description: Western blot of signal transduction effects. Also noted: key to Caspase-8 cleavage / Caspase-3 cleavage / PARP cleavage / Akt / p-Akt / Bcl-2: NE represents no effect. As to conditions: IC25 doses. Format: cell-based, human. The procedure: Cell lysates ([…]) were fractionated by 8-15% SDS-PAGE and transferred on Immobilon-P nitrocellulose membranes (Schleicher & Schuell Inc., Keene, N.H.). Membranes were blocked for 2 hours in Tris-buffered saline (TBS) containing 3% bovine serum albumin. Monoclonal anti-HER-2/neu Ab (Oncogene Research Products, San Diego, Calif.), rabbit polyclonal anti-HER-1 Ab, rabbit polyclonal anti-TNFR-1 Ab, rabbit polyclonal anti-TNFR-2 Ab, rabbit polyclonal anti-phospho Akt Ab, rabbit polyclonal anti-Akt, and goat anti-β-actin Ab were used for immunoblotting. Goat anti-mouse/goat anti-rabbit or swain anti-goat antibodies conjugated with horseradish peroxidase (Bio-Rad Laboratories, Hercules, Calif.) were used to visualize immunoreactive proteins at a 1:4000 dilution using ECL detection reagent (Amersham Pharmacia Biotech Inc., Piscataway, N.J.).
HER-2/neu over-expression results in activation of different downstream pathways such as the Akt kinase pathway, which leads to cell proliferation and cell survival. […] The activation of Akt kinase was then assessed by Western blot analysis using antibodies to Akt and to phospho-Akt. […]
To determine whether caspase-8 and caspase-3 were activated in L3.6pl cells during 5-FU+scFv23/TNF-induced cell death, the cleavage of caspase-8, caspase-3, and its substrate poly (ADP)-ribose polymerase (PARP) was investigated.
Background: Immunoblotting shows a protein as a band on a membrane.

The subject of series [9] is HER-2-overexpressing SKBR-3/H cells. The experiment in a line: Western blot, DNA fragmentation, TUNEL: signal transduction effects. Format: cell-based, human. Also noted: key to Akt / Caspase-8 cleavage / Caspase-3 cleavage / PARP cleavage / DNA fragmentation / IκB-α / TRADD / TRAF-2: NE represents no effect. Particulars: 200 nM. The procedure:
Apoptosis was detected by DNA fragmentation and TUNEL assay. […] After 24 hr and 48 hr, cells were washed with PBS, resuspended in a DNA extraction buffer containing 5 mM Tris-HCl, pH 8, 50 mM EDTA, 10 μg/ml RNAse, and 0.25% SDS and then incubated for 1 hr at 37° C. To remove protein, resuspended cell lysates were treated with 100 μg/ml proteinase K for 3 hr at 50° C. DNA was extracted using phenol and chloroform followed by ethanol precipitation. The genomic DNA was resuspended in Tris-EDTA (pH 8) and was fractionated by electrophoresis on a 1% agarose gel containing ethidium bromide.
The cells were washed with PBS, permeabilized (0.1% Triton X-100, 0.1% sodium citrate), and then fixed in 4% paraformaldehyde. Fixed cells were stained with in situ cell death detection kit (Roche). Cells undergoing apoptosis were identified by fluorescence microscopy.
After treatment, cells were washed twice with phosphate buffered saline (PBS) and lysed on ice for 20 min in 0.3 ml of lysis buffer (10 mM Tris-HCl, pH 8, 60 mM KCl, 1 mM EDTA, 1 mM DTT, 0.2% NP-40). Cell lysates (50 μg) were fractionated by 8-15% SDS-PAGE and electrophoretically transferred to Immobilon-P nitrocellulose membranes (Schleicher & Schuell Inc., Keene, N.H.). Membranes were blocked 2 hrs in Tris-buffered saline (TBS) containing 3% bovine serum albumin and then probed with various antibodies (monoclonal anti-HER-2/neu Ab, rabbit polyclonal anti-TNFR1 Ab, rabbit polyclonal anti-TNFR2 Ab, rabbit polyclonal anti-caspase-8 Ab, monoclonal anti-caspase-3 Ab, monoclonal anti-PARP Ab, rabbit polyclonal anti-TRADD Ab, rabbit polyclonal anti-TRAF2 Ab, rabbit polyclonal anti-IκB-α Ab, rabbit polyclonal anti-phospho Akt Ab, and rabbit polyclonal anti-Akt Ab). Goat anti-mouse/goat anti-rabbit or swain anti-goat antibodies conjugated with horseradish peroxidase (Bio-Rad Laboratories, Hercules, Calif.) were used to visualize immunoreactive proteins at a 1:4000 dilution using ECL detection reagent (Amersham Pharmacia Biotech Inc., Piscataway, N.J.).

Setting [10] is: Seq. III: pretreated with GrB/scFvMEL for 6 h, then agent for 72 h.
Setting [11] is: Seq. IV: agent for 72 h without GrB/scFvMEL pretreatment.

Chain of gp240 antigen (high-molecular-weight glycoprotein gp240 on human melanoma cells) (human) (Q6UVK1 30-2322): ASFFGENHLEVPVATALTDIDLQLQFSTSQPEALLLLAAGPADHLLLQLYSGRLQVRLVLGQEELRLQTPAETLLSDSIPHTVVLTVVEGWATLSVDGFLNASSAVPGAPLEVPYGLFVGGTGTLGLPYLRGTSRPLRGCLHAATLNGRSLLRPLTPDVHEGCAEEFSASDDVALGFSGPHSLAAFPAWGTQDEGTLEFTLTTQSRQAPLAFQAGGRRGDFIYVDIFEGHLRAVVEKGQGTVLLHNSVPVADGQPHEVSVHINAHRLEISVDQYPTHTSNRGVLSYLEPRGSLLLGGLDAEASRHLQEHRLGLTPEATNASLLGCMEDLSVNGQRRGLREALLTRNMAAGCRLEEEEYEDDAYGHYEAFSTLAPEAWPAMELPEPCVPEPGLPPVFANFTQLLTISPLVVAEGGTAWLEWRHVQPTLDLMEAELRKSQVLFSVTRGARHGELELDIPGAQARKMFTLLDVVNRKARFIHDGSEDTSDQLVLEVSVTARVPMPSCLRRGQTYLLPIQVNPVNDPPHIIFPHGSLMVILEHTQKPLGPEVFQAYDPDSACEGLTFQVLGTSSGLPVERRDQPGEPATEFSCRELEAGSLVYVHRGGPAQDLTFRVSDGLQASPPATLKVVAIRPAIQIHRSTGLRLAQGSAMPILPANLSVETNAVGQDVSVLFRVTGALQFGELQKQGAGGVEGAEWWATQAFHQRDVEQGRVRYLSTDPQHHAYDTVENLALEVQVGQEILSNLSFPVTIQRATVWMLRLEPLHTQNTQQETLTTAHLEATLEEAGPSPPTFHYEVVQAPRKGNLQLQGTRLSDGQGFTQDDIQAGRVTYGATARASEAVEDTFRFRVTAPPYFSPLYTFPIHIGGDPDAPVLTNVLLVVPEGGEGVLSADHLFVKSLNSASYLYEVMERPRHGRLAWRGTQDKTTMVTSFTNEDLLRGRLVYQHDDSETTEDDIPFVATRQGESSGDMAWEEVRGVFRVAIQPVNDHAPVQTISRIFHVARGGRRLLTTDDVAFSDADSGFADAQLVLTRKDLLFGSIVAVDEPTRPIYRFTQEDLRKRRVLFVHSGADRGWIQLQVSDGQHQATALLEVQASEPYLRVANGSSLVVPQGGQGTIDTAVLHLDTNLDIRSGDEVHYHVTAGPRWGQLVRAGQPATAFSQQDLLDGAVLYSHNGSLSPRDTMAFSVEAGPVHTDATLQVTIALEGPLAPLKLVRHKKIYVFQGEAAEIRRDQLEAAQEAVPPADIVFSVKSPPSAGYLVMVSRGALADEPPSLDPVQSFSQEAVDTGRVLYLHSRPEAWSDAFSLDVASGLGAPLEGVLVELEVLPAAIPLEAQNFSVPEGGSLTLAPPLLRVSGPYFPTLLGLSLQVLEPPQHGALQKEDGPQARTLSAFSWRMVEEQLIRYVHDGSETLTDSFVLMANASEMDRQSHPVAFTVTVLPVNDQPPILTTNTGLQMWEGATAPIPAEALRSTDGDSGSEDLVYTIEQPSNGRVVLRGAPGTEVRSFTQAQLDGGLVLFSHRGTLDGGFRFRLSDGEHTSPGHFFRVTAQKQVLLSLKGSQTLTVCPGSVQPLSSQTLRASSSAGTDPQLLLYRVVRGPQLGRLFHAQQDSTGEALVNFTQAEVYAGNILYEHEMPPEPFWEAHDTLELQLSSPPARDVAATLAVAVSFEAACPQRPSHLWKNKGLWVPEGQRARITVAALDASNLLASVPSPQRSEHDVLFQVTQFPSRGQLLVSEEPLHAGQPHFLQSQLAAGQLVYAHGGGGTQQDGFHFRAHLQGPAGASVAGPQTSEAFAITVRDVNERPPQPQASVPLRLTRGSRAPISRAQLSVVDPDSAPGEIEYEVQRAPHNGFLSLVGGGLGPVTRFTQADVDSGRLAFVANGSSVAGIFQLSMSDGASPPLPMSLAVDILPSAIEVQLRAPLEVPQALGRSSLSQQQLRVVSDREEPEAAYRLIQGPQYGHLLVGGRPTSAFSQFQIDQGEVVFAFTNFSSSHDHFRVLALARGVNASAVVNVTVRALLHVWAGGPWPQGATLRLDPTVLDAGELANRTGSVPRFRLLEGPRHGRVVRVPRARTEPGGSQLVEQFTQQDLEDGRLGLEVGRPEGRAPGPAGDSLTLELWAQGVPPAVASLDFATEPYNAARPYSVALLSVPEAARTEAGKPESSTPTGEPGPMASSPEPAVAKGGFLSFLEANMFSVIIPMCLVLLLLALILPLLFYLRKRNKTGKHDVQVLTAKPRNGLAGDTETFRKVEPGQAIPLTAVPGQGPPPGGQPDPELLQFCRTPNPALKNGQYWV

On to monoclonal antibody ZME-018 IgG2a, for which the Gp240 Antigen % positive was 98.9% in [1], 40.9% in series [2], 4.6% in [3] and 97.8% in [4].

Broadly, the IC50 is the point on the concentration scale where inhibition reaches its midpoint. `COc1cccc2c1C(=O)c1c(O)c3c(c(O)c1C2=O)C[C@@](O)(C(=O)CO)C[C@@H]3O[C@H]1C[C@H](N)[C@H](O)[C@H](C)O1` [Doxorubicin]: in the series on A375-M Cells, the “antitumor activity on co-administration with GrB/scFvMEL” value (shortened to “antitumor activity … with GrB/scFvMEL”) is on record as “synergistic”. For the same molecule, the “% cytotoxicity” value stood at 33.73 ± 1.590% with A375-M Cells (setting [10]) and 30.33 ± 1.093% in the series on A375-M Cells (setting [11]). Further, the half-inhibitory concentration (IC50) in series [5] was found to be 200 nM; in the series on parental A375 cells, 0.5 nM; in the series on Capan-1 (Homo sapiens, CAPAN-1), 60 nM; with Capan-2 (Homo sapiens, Capan-2), 500 nM; in the series on L3.6pl (Homo sapiens, L3.6pl), 30 nM; in the series on AsPc-1 (Homo sapiens, ASPC1) it was 320 nM. In addition, in series [6], the IC50 fell in the range of 6 to 700 nM.

For the molecule `Nc1ccn([C@@H]2O[C@H](CO)[C@@H](O)C2(F)F)c(=O)n1` [Gemcitabine], the IC50 is 20 nM in the series with Capan-1 (Homo sapiens, CAPAN-1); 150 nM in the series with Capan-2 (Homo sapiens, Capan-2); 6 nM in the series with L3.6pl (Homo sapiens, L3.6pl); 200 nM with AsPc-1 (Homo sapiens, ASPC1); 6 to 700 nM in series [6]. For the same molecule, the “cytotoxic effect of agent combined with scFv23/TNF” value in [7] was “antagonistic cytotoxic effects in 3/4 cell lines”.

`Nc1ccn([C@@H]2O[C@H](CO)[C@@H](O)[C@@H]2O)c(=O)n1` [Ara C, cytarabine]: in the series on A375-M Cells, the “antitumor activity … with GrB/scFvMEL” value is “additive”. Further, the “% cytotoxicity” value with A375-M Cells (setting [10]) was found to be 68.70 ± 0.950%; in the series with A375-M Cells (setting [11]) it was 62.10 ± 1.054%.

With “GrB/scFvMEL fusion construct (from UniProt P10144 21-247)”, in series [8], the I.C.50, 72-h cytotoxicity (crystal violet), A375-M cells was 32.1 nM; the I.C.50, 72-h cytotoxicity (crystal violet), MEL-526 cells amounted to 50 nM; the I.C.50, 72-h cytotoxicity (crystal violet), TXM-1 cells (very low-level gp240 expression) is above 1 µM; the I.C.50, 72-h cytotoxicity (crystal violet), TXM-13 cells came to 200 nM. This molecule also displayed an I.C.50, 72-h cytotoxicity (crystal violet), TXM-18L cells in [8] of 158 nM.

In the case of `CC[C@]1(O)C[C@H]2CN(CCc3c([nH]c4ccccc34)[C@@](C(=O)OC)(c3cc4c(cc3OC)N(C=O)[C@H]3[C@@](O)(C(=O)OC)[C@H](OC(C)=O)[C@]5(CC)C=CCN6CC[C@]43[C@@H]65)C2)C1` [VCR, vincristine], the “antitumor activity … with GrB/scFvMEL” value in the series with A375-M Cells is given as “synergistic”.

In the case of `COc1cc([C@@H]2c3cc4c(cc3[C@@H](O[C@@H]3O[C@@H]5CO[C@@H](C)O[C@H]5[C@H](O)[C@H]3O)[C@H]3COC(=O)[C@H]23)OCO4)cc(OC)c1O` [Etoposide], the “antitumor activity … with GrB/scFvMEL” value with A375-M Cells is given as “additive”. Moreover, the entries for the “% cytotoxicity” value with A375-M Cells (setting [10]) and in the series with A375-M Cells (setting [11]) were 59.80 ± 1.986% and 51.27 ± 1.102%, respectively. Moreover, the IC50 in the series with Capan-1 (Homo sapiens, CAPAN-1) is 2000 nM; in the series on Capan-2 (Homo sapiens, Capan-2) it was 40000 nM; in the series on L3.6pl (Homo sapiens, L3.6pl), 2000 nM; with AsPc-1 (Homo sapiens, ASPC1), 28000 nM; in series [6], 1000 to 300000 nM.

With `N.N.[Cl][Pt][Cl]` [Cisplatin], the “antitumor activity … with GrB/scFvMEL” value with A375-M Cells is recorded as “synergistic”. Also, the IC50 in the series with Capan-1 was found to be 4500 nM; in the series on Capan-2 it was 50000 nM; in the series with L3.6pl it was 3600 nM; in the series on AsPc-1 it was 14000 nM. The “cytotoxic effect of agent combined with scFv23/TNF” value in [7] was “antagonistic cytotoxic effects in 3/4 cell lines”.

As for `O=c1[nH]cc(F)c(=O)[nH]1` [5-Fluorouracil, 5-fluorouracil], the “antitumor activity … with GrB/scFvMEL” value with A375-M Cells is “additive”. Also, the “% cytotoxicity” value in the series on A375-M Cells (setting [10]) came out at 44.43 ± 2.118%. In the series on A375-M Cells (setting [11]), the “% cytotoxicity” value was determined as 21.90 ± 0.794%. In the series with L3.6pl cells, the Akt entry is recorded as “NE”, the Bcl-2 result is “NE”, the “inhibition of Bcl-2 expression levels” value was “no impact” and the p-Akt entry is reported as “NE”. Further, in the series with L3.6pl cells (48 hr), the Caspase-3 cleavage entry is “NE”, the Caspase-8 cleavage result is “NE” and the PARP cleavage entry is listed as “NE”. Moreover, the IC50 in the series with Capan-1 (Homo sapiens, CAPAN-1) worked out at 6000 nM. The IC50 in the series on Capan-2 (Homo sapiens, Capan-2) came out at 300000 nM. The IC50 in the series with L3.6pl (Homo sapiens, L3.6pl) was determined as 1000 nM. Also, in the series on AsPc-1 (Homo sapiens, ASPC1), the IC50 is 7500 nM. Further, the IC50 in [6] is 1000 to 300000 nM.

B1: scFv23: single chain antibody recognizing the cell surface domain of HER-2/neu (protein)
scFv: DVQLTQSPAILSASPGEKVTMTCRATPSVSYMHWYQQKPGSSPKPWIYTTSNLASGVPARFSGGGSGTSYSLTVSRVEAEDAATYYCQQWSRSPPTFGGGSKLEIKGSTSGSGKSSEGKGVQLQESGPEVVKPGGSMKISCKTSGYSFTGHTMNWVKQSHGKNLEWIGLINPYNGDTNYNQKFKGKATFTVDKSSSTAYMELLSLTSEDSAVYYCARRVTDWYFDVWGAGTTVTVSS
Regarding B1, in series [9], the Akt entry is “NE”, the Caspase-3 cleavage entry is “NE”, the Caspase-8 cleavage entry is “NE” and the DNA fragmentation result is reported as “NE”. In series [9], the IκB-α entry is given as “NE*”, the PARP cleavage entry is “NE”, the TRADD result was “NE” and the TRAF-2 entry is listed as “NE”. Moreover, the p-Akt entry in [9] is given as “↑”.
